Results as given in ChEMBL document CHEMBL1268880, “Investigation of 4-piperidinols as novel H3 antagonists” (Bioorg Med Chem Lett, 2010).
pIC50: −log10 of the molar value.

Experiments:
Histamine H3 receptor [1] = biological target: Histamine H3 receptor (Homo sapiens, UniProt Q9Y5N1); assay: Antagonist activity against human histamine H3 receptor expressed in human HT1080 cells assessed as inhibition of (R)-alpha-methylhistamine-induced increase in intracellular calcium level by FLIPR assay; assay type: functional, cell-based, HT-1080
Histamine H3 receptor [2] = biological target: Histamine H3 receptor (Mus musculus, UniProt P58406); assay: Antagonist activity against mouse histamine H3 receptor expressed in human HT1080 cells assessed as inhibition of (R)-alpha-methylhistamine-induced increase in intracellular calcium level by FLIPR assay; assay type: functional, cell-based, HT-1080
hERG (KCNH2) [3] = biological target: T1, hERG (KCNH2) (Homo sapiens, UniProt Q12809); assay: Inhibition of human ERG at 10 uM
[4] = Selectivity ratio of IC50 for mouse histamine H3 receptor to IC50 for human histamine H3 receptor
hERG (KCNH2) [5] = biological target: T1, hERG (KCNH2); assay: Inhibition of human ERG at 50 uM

T1 sequence (Q12809 whole entry): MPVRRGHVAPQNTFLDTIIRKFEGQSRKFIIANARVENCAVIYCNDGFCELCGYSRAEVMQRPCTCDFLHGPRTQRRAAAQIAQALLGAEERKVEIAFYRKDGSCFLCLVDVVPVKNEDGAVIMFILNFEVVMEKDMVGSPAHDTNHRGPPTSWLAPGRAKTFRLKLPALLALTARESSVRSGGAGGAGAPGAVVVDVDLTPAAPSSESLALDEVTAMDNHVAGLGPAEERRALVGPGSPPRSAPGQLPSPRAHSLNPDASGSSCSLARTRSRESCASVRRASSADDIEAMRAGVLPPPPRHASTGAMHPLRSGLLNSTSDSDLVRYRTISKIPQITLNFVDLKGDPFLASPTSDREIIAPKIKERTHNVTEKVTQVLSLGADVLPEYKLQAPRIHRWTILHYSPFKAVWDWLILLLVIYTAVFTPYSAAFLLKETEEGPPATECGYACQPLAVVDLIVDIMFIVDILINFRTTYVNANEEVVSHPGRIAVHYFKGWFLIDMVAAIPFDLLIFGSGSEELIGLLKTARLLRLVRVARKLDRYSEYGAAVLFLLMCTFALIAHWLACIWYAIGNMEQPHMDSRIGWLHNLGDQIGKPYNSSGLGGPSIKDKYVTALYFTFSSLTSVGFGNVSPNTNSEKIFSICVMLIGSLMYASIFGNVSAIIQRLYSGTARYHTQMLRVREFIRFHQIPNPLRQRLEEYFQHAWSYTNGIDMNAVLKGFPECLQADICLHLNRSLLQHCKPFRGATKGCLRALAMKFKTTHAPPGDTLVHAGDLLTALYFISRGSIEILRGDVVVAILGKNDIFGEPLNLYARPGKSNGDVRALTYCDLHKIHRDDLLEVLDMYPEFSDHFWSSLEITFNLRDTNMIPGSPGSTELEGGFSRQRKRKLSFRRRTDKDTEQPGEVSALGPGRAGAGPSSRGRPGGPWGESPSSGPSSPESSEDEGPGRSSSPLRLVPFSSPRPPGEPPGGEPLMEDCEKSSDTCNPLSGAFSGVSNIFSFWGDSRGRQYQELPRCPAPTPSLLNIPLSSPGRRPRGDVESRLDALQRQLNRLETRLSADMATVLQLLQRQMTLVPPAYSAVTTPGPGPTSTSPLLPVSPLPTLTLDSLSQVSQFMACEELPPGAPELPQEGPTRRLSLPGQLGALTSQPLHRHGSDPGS
Sequence of Histamine H3 receptor (Mus musculus, UniProt P58406) (P58406 whole entry): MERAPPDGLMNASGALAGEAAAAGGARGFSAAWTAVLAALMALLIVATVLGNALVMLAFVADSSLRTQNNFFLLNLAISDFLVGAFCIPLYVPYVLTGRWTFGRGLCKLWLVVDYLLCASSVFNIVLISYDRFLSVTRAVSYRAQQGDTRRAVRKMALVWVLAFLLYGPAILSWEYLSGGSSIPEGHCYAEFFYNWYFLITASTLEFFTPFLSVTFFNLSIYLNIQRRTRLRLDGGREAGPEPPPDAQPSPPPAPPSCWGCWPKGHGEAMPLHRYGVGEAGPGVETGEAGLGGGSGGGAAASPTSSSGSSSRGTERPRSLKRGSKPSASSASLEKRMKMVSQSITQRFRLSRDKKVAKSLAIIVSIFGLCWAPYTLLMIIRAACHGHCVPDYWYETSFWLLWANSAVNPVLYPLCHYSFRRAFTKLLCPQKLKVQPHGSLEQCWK
Sequence of Histamine H3 receptor (Homo sapiens, UniProt Q9Y5N1) (Q9Y5N1 whole entry): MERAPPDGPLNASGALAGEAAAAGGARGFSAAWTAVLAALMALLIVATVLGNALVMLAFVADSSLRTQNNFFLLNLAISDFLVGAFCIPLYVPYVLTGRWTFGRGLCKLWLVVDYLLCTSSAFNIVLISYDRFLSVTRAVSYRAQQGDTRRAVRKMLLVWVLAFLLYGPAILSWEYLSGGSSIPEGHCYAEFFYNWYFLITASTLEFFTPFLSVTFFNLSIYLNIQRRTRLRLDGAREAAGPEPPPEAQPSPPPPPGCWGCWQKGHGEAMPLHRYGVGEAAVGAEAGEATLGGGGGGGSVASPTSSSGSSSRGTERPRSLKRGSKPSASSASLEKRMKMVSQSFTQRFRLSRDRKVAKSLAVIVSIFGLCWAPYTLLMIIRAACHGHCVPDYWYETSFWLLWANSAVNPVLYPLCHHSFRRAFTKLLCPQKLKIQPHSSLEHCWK

| SMILES | pIC50 (Histamine H3 receptor [1]) | pIC50 (Histamine H3 receptor [2]) | Ratio IC50 [4] | inhibition at 10 µM (hERG (KCNH2) [3]) [%] | inhibition at 50 µM (hERG (KCNH2) [5]) [%] |
| --- | --- | --- | --- | --- | --- |
| CC1CC(O)(C#Cc2ccc3ccccc3c2)C(C)CN1C (racemic) | 7.08 | 6.09 | – | – | – |
| C[C@@H]1C[C@@](O)(CCc2cccc3ccccc23)[C@@H](C)CN1C | 8.70 | 7.07 | – | 16 | – |
| CC1CC(O)(CCc2cccc3ccccc23)C(C)CN1C (racemic) | 7.77 | 6.32 | – | 15 | – |
| NC(=NCc1ccc(Cl)cc1)SCCCc1cnc[nH]1 [CLOBENPROPIT] | – | 9.00 | – | – | – |
| CC1CN2CCCC2CC1(O)CCc1cccc2ccccc12 (racemic) | 7.85 | 6.46 | – | – | – |
| CC(=O)OC1(C#Cc2cccc3ccccc23)CC(C)N(C)CC1C (racemic) | 5.26 | < 5.00 | – | – | – |

Second part, led by results:

| pIC50 (Histamine H3 receptor [1]) | pIC50 (Histamine H3 receptor [2]) | Ratio IC50 [4] | SMILES | inhibition at 10 µM (hERG (KCNH2) [3]) [%] | inhibition at 50 µM (hERG (KCNH2) [5]) [%] |
| --- | --- | --- | --- | --- | --- |
| 7.39 | 5.88 | – | C[C@@H]1CN(C)[C@@H](C)C[C@]1(O)C#Cc1cccc2ccccc12 | – | – |
| 7.70 | 6.24 | – | CC1CC(O)(/C=C/c2cccc3ccccc23)C(C)CN1C (racemic) | 20 | – |
| 8.70 | 6.91 | – | CC1CC(O)(CCc2ccc3ccccc3c2)C(C)CN1C (racemic) | 0 | – |
| 8.05 | 6.92 | 13 | C[C@@H]1C[C@@](O)(C#Cc2cccc3ccccc23)[C@@H](C)CN1C | – | 15 |
| 7.96 | 6.55 | – | CC1CC(O)(C#Cc2cccc3ccccc23)C(C)CN1C (racemic) | – | – |
| 8.30 | 6.55 | – | CC1CN2CCCC2CC1(O)C#Cc1cccc2ccccc12 (racemic) | 23 | – |
| 7.92 | 6.16 | – | CC1CC(O)(C#Cc2cccc3ncccc23)C(C)CN1C (racemic) | 3 | – |
| 6.15 | 5.01 | – | CC1CC(O)(C#Cc2cccc3cccnc23)C(C)CN1C (racemic) | – | – |
